Assay results taken from the supplement of paper PMC10307832.

Assays:
Assay in all cases: relative viability (nuclei count vs DMSO), 5 days (fraction); higher = more cells survive
Etoposide + Navitoclax = compound: COc1cc([C@@H]2c3cc4c(cc3[C@@H](O[C@@H]3O[C@@H]5CO[C@@H](C)O[C@H]5[C@H](O)[C@H]3O)[C@H]3COC(=O)[C@H]23)OCO4)cc(OC)c1O [Etoposide] + CC1(C)CCC(c2ccc(Cl)cc2)=C(CN2CCN(c3ccc(C(=O)NS(=O)(=O)c4ccc(N[C@H](CCN5CCOCC5)CSc5ccccc5)c(S(=O)(=O)C(F)(F)F)c4)cc3)CC2)C1 [Navitoclax] (partner 0.5 µM)
Procedure, shortened: (§1)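 Five library-drug doses in √10 steps were combined with a fixed anchor-drug dose, or a single drug was given alone, by pin tool to lung cancer cell lines in 1536-well plates the day after seeding. Nuclei were stained and counted after 5 days. Relative viability is the nuclei count in treated wells over that in vehicle wells, taken as the median of duplicate plates.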

Bleomycin + Decitabine = compound: CC1=C(N=C(N=C1N)[C@H](CC(=O)N)NC[C@@H](C(=O)N)N)C(=O)N[C@@H]([C@H](C2=CN=CN2)OC3C(C(C(C(O3)CO)O)O)OC4C(C(C(C(O4)CO)O)OC(=O)N)O)C(=O)N[C@H](C)[C@H]([C@H](C)C(=O)N[C@@H]([C@@H](C)O)C(=O)NCCC5=NC(=CS5)C6=NC(=CS6)C(=O)NCCC[S+](C)C)O [Bleomycin] + Nc1ncn([C@H]2C[C@H](O)[C@@H](CO)O2)c(=O)n1 [Decitabine] (partner 2 µM); details: main component drawn
Procedure, shortened: as §1

Etoposide + Decitabine = compound: COc1cc([C@@H]2c3cc4c(cc3[C@@H](O[C@@H]3O[C@@H]5CO[C@@H](C)O[C@H]5[C@H](O)[C@H]3O)[C@H]3COC(=O)[C@H]23)OCO4)cc(OC)c1O [Etoposide] + Nc1ncn([C@H]2C[C@H](O)[C@@H](CO)O2)c(=O)n1 [Decitabine] (partner 2 µM)
Procedure, shortened: as §1

Bleomycin + Foretinib = compound: CC1=C(N=C(N=C1N)[C@H](CC(=O)N)NC[C@@H](C(=O)N)N)C(=O)N[C@@H]([C@H](C2=CN=CN2)OC3C(C(C(C(O3)CO)O)O)OC4C(C(C(C(O4)CO)O)OC(=O)N)O)C(=O)N[C@H](C)[C@H]([C@H](C)C(=O)N[C@@H]([C@@H](C)O)C(=O)NCCC5=NC(=CS5)C6=NC(=CS6)C(=O)NCCC[S+](C)C)O [Bleomycin] + COc1cc2c(Oc3ccc(NC(=O)C4(C(=O)Nc5ccc(F)cc5)CC4)cc3F)ccnc2cc1OCCCN1CCOCC1 [Foretinib] (partner 0.25 µM); details: main component drawn
Procedure, shortened: as §1

Row | Cell Line | relative viability (Etoposide + Navitoclax; first compound 0.01 µM) | relative viability (Etoposide + Navitoclax; first compound 0.03162 µM) | relative viability (Etoposide + Navitoclax; first compound 0.1 µM) | relative viability (Etoposide + Navitoclax; first compound 0.3162 µM) | relative viability (Etoposide + Navitoclax; first compound 1 µM) | relative viability (Bleomycin + Decitabine; first compound 0.01 µM) | relative viability (Bleomycin + Decitabine; first compound 0.03162 µM) | relative viability (Bleomycin + Decitabine; first compound 0.1 µM) | relative viability (Bleomycin + Decitabine; first compound 0.3162 µM) | relative viability (Bleomycin + Decitabine; first compound 1 µM) | relative viability (Etoposide + Decitabine; first compound 0.01 µM) | relative viability (Etoposide + Decitabine; first compound 0.03162 µM) | relative viability (Etoposide + Decitabine; first compound 0.1 µM) | relative viability (Etoposide + Decitabine; first compound 0.3162 µM) | relative viability (Etoposide + Decitabine; first compound 1 µM) | relative viability (Bleomycin + Foretinib; first compound 0.01 µM) | relative viability (Bleomycin + Foretinib; first compound 0.03162 µM) | relative viability (Bleomycin + Foretinib; first compound 0.1 µM) | relative viability (Bleomycin + Foretinib; first compound 0.3162 µM) | relative viability (Bleomycin + Foretinib; first compound 1 µM)
1 | NCI-H2009 | 1.13 | 1.08 | 1.21 | 0.771 | 0.496 | 0.39 | 0.392 | 0.353 | 0.293 | 0.271 | 0.396 | 0.425 | 0.316 | 0.354 | 0.234 | 0.775 | 1.29 | 1.25 | 0.969 | 0.639
2 | 201T | 1.25 | 1.23 | 1.13 | 1.14 | 1.02 | 0.839 | 0.816 | 0.677 | 0.735 | 0.561 | 0.835 | 0.886 | 0.758 | 0.641 | 0.384 | 0.902 | 0.928 | 0.825 | 0.548 | 0.336
3 | NCI-H2347 | 0.809 | 0.626 | 0.405 | 0.354 | 0.28 | 0.572 | 0.635 | 0.543 | 0.514 | 0.488 | 0.6 | 0.628 | 0.573 | 0.443 | 0.411 | 0.852 | 0.97 | 0.628 | 0.319 | 0.692
4 | LOU-NH91 | 0.695 | 0.654 | 0.504 | 0.464 | 0.329 | 0.624 | 0.611 | 0.472 | 0.38 | 0.406 | 0.783 | 0.876 | 0.778 | 0.766 | 0.54 | 0.781 | 0.663 | 0.649 | 0.4 | 0.309
5 | NCI-H2085 | 1.16 | 1.06 | 1.11 | 0.67 | 0.354 | 0.558 | 0.551 | 0.418 | 0.421 | 0.339 | 0.609 | 0.573 | 0.484 | 0.373 | 0.374 | 1.03 | 0.845 | 0.692 | 0.461 | 0.396
6 | COR-L23 | 0.935 | 1.02 | 1.07 | 0.554 | 0.236 | 0.378 | 0.407 | 0.287 | 0.188 | 0.147 | 0.407 | 0.471 | 0.337 | 0.377 | 0.176 | 0.825 | 0.781 | 0.412 | 0.154 | 0.144
7 | BEN | 0.0656 | 0.0585 | – | 0.057 | 0.0632 | 0.719 | 0.745 | 0.685 | 0.607 | 0.542 | 0.742 | 0.769 | – | 0.692 | 0.476 | 0.626 | 0.582 | 0.587 | 0.379 | 0.329
8 | ChaGo-K-1 | 1.11 | 0.956 | 0.755 | 0.391 | 0.274 | 0.492 | 0.506 | 0.476 | 0.433 | 0.364 | 0.448 | 0.546 | 0.397 | 0.291 | 0.229 | 0.831 | 0.75 | 0.754 | 0.507 | 0.444
9 | LK-2 | 0.815 | 0.945 | 0.643 | 0.498 | 0.267 | 0.22 | 0.241 | 0.184 | 0.121 | 0.142 | 0.289 | 0.302 | 0.159 | 0.177 | 0.171 | 0.803 | 0.779 | 0.743 | 0.36 | 0.285
10 | NCI-H441 | 0.535 | 0.633 | 0.571 | 0.168 | 0.189 | 0.233 | 0.238 | 0.221 | 0.217 | 0.224 | 0.273 | 0.239 | 0.241 | 0.213 | 0.169 | 0.72 | 0.613 | 1.08 | 0.623 | 0.46
11 | NCI-H596 | 0.977 | 0.989 | – | 0.87 | 0.642 | 1 | 0.83 | 0.55 | 0.495 | 0.509 | 0.826 | 1.05 | 1.09 | 1.01 | 0.857 | 0.586 | 0.629 | 0.464 | 0.354 | 0.247
12 | NCI-H1666 | 0.788 | 0.875 | 0.549 | 0.353 | 0.263 | 0.699 | 0.56 | 0.505 | 0.442 | 0.388 | 0.746 | 0.798 | 0.693 | 0.582 | 0.452 | 0.763 | 0.675 | 0.533 | 0.44 | 0.398
13 | NCI-H1993 | 0.921 | 1.08 | 0.856 | 0.758 | 0.533 | 0.602 | 0.507 | 0.556 | 0.519 | 0.436 | – | 0.609 | 0.482 | 0.599 | 0.461 | 0.809 | 0.667 | 0.796 | 0.644 | 0.479
14 | NCI-H1975 | 1.09 | 1.33 | 1.06 | 0.701 | 0.468 | 0.327 | 0.437 | 0.291 | 0.209 | 0.177 | 0.371 | 0.757 | 0.4 | 0.249 | 0.212 | 0.708 | 0.582 | 0.434 | 0.191 | 0.198
